Test results reported in ChEMBL document CHEMBL3885881, “DrugMatrix”.

Organism: Rattus norvegicus
Test: DrugMatrix - Regimen: Daily Repeat
Assay type: toxicity, organism-based, Sprague-Dawley
Parameters: regimen Daily Repeat, gender Male, age 6-8 weeks
Settings: in vivo, po, route oral GAVAGE, […]; for ABSOLUTE BASOPHIL / ABSOLUTE EOSINOPHIL / ABSOLUTE LYMPHOCYTE / ABSOLUTE MONOCYTE / ABSOLUTE SEGMENTED NEUTROPHIL / BASOPHIL / EOSINOPHIL / ERYTHROCYTE COUNT / HEMATOCRIT / HEMOGLOBIN / LEUKOCYTE COUNT / LYMPHOCYTE / MEAN CORPUSCULAR HEMOGLOBIN / MEAN CORPUSCULAR HEMOGLOBIN CONCENTRATION / MEAN CORPUSCULAR VOLUME / MONOCYTE / NEUTROPHIL / NUCLEATED RED BLOOD CELLS / PLATELET COUNT: tissue Blood; for ALANINE AMINOTRANSFERASE / ALBUMIN / ALKALINE PHOSPHATASE / ASPARTATE AMINOTRANSFERASE / BLOOD UREA NITROGEN / CARBON DIOXIDE / CHLORIDE / CHOLESTEROL / CREATINE PHOSPHOKINASE / CREATININE / GLUCOSE / LACTATE DEHYDROGENASE / LIPASE / PHOSPHORUS / POTASSIUM / SODIUM / TOTAL BILIRUBIN / TOTAL PROTEIN / URIC ACID: tissue Plasma
[1] = 0 mg/kg, 72 h, dose level Control, time 3 day
[2] = 0 mg/kg, 120 h, dose level Control, time 5 day
[3] = 13 mg/kg, 72 h, dose level Low, time 3 day
[4] = 13 mg/kg, 120 h, dose level Low, time 5 day

CC1=C(/C=C/C(C)=C/C=C/C(C)=C\C(=O)O)C(C)(C)CCC1 [ISOTRETINOIN]
ABSOLUTE BASOPHIL [1]: 0 CELLS/uL | ABSOLUTE EOSINOPHIL [1]: 0 CELLS/uL | ABSOLUTE LYMPHOCYTE [1]: 8493 CELLS/uL | ABSOLUTE MONOCYTE [1]: 127 CELLS/uL | ABSOLUTE SEGMENTED NEUTROPHIL [1]: 896.67 CELLS/uL | BASOPHIL [1]: 0% | EOSINOPHIL [1]: 0% | ERYTHROCYTE COUNT [1]: 5.53 x10E6/uL | HEMATOCRIT [1]: 34.07% | HEMOGLOBIN [1]: 13.28 G/DL | LEUKOCYTE COUNT [1]: 9.52 x10E3/uL | LYMPHOCYTE [1]: 89.17% | MEAN CORPUSCULAR HEMOGLOBIN [1]: 24.07 pg | MEAN CORPUSCULAR HEMOGLOBIN CONCENTRATION [1]: 39.03 G/DL | MEAN CORPUSCULAR VOLUME [1]: 61.62 fL | MONOCYTE [1]: 1.33% | NEUTROPHIL [1]: 9.5% | NUCLEATED RED BLOOD CELLS [1]: 0.17 /100WBC | PLATELET COUNT [1]: 1054.17 x10E3/uL | ALANINE AMINOTRANSFERASE [1]: 77.67 u/L | ALBUMIN [1]: 4.08 G/DL | ALKALINE PHOSPHATASE [1]: 404.5 u/L | ASPARTATE AMINOTRANSFERASE [1]: 83.17 u/L | BLOOD UREA NITROGEN [1]: 14.33 mg/dL | CARBON DIOXIDE [1]: 33.17 mmol/L | CHLORIDE [1]: 101 MEQ/L | CHOLESTEROL [1]: 76.33 mg/dL | CREATINE PHOSPHOKINASE [1]: 184.5 u/L | CREATININE [1]: 0.13 mg/dL | GLUCOSE [1]: 163.67 mg/dL | LACTATE DEHYDROGENASE [1]: 130.33 u/L | LIPASE [1]: 11 u/L | PHOSPHORUS [1]: 9.27 mg/dL | POTASSIUM [1]: 6.26 MEQ/L | SODIUM [1]: 143.57 MEQ/L | TOTAL BILIRUBIN [1]: 0.18 mg/dL | TOTAL PROTEIN [1]: 5.82 G/DL | URIC ACID [1]: 1.38 mg/dL | ABSOLUTE BASOPHIL [2]: 0 CELLS/uL | ABSOLUTE EOSINOPHIL [2]: 0 CELLS/uL | ABSOLUTE LYMPHOCYTE [2]: 8546.17 CELLS/uL | ABSOLUTE MONOCYTE [2]: 49.5 CELLS/uL | ABSOLUTE SEGMENTED NEUTROPHIL [2]: 554.33 CELLS/uL | BASOPHIL [2]: 0% | EOSINOPHIL [2]: 0% | ERYTHROCYTE COUNT [2]: 5.36 x10E6/uL | HEMATOCRIT [2]: 33.38% | HEMOGLOBIN [2]: 13.2 G/DL | LEUKOCYTE COUNT [2]: 9.15 x10E3/uL | LYMPHOCYTE [2]: 93.17% | MEAN CORPUSCULAR HEMOGLOBIN [2]: 24.68 pg | MEAN CORPUSCULAR HEMOGLOBIN CONCENTRATION [2]: 39.58 G/DL | MEAN CORPUSCULAR VOLUME [2]: 62.38 fL | MONOCYTE [2]: 0.5% | NEUTROPHIL [2]: 6.33% | NUCLEATED RED BLOOD CELLS [2]: 0.17 /100WBC | PLATELET COUNT [2]: 1099.33 x10E3/uL | ALANINE AMINOTRANSFERASE [2]: 62.33 u/L | ALBUMIN [2]: 4.1 G/DL | ALKALINE PHOSPHATASE [2]: 419 u/L | ASPARTATE AMINOTRANSFERASE [2]: 83.17 u/L | BLOOD UREA NITROGEN [2]: 15.5 mg/dL | CARBON DIOXIDE [2]: 33.17 mmol/L | CHLORIDE [2]: 98 MEQ/L | CHOLESTEROL [2]: 58.33 mg/dL | CREATINE PHOSPHOKINASE [2]: 393.17 u/L | CREATININE [2]: 0.18 mg/dL | GLUCOSE [2]: 163 mg/dL | LACTATE DEHYDROGENASE [2]: 111.5 u/L | LIPASE [2]: 9.5 u/L | PHOSPHORUS [2]: 10.02 mg/dL | POTASSIUM [2]: 5.73 MEQ/L | SODIUM [2]: 143.65 MEQ/L | TOTAL BILIRUBIN [2]: 0.2 mg/dL | TOTAL PROTEIN [2]: 5.85 G/DL | URIC ACID [2]: 0.78 mg/dL | ABSOLUTE BASOPHIL [3]: 0 CELLS/uL | ABSOLUTE EOSINOPHIL [3]: 0 CELLS/uL | ABSOLUTE LYMPHOCYTE [3]: 5796.67 CELLS/uL | ABSOLUTE MONOCYTE [3]: 69.67 CELLS/uL | ABSOLUTE SEGMENTED NEUTROPHIL [3]: 533.67 CELLS/uL | BASOPHIL [3]: 0% | EOSINOPHIL [3]: 0% | ERYTHROCYTE COUNT [3]: 5.14 x10E6/uL | HEMATOCRIT [3]: 32.4% | HEMOGLOBIN [3]: 12.5 G/DL | LEUKOCYTE COUNT [3]: 6.4 x10E3/uL | LYMPHOCYTE [3]: 90.67% | MEAN CORPUSCULAR HEMOGLOBIN [3]: 24.33 pg | MEAN CORPUSCULAR HEMOGLOBIN CONCENTRATION [3]: 38.63 G/DL | MEAN CORPUSCULAR VOLUME [3]: 63.07 fL | MONOCYTE [3]: 1% | NEUTROPHIL [3]: 8.33% | NUCLEATED RED BLOOD CELLS [3]: 0 /100WBC | PLATELET COUNT [3]: 977.33 x10E3/uL | ALANINE AMINOTRANSFERASE [3]: 80.33 u/L | ALBUMIN [3]: 3.7 G/DL | ALKALINE PHOSPHATASE [3]: 427.67 u/L | ASPARTATE AMINOTRANSFERASE [3]: 93.33 u/L | BLOOD UREA NITROGEN [3]: 12 mg/dL | CARBON DIOXIDE [3]: 35 mmol/L | CHLORIDE [3]: 101.33 MEQ/L | CHOLESTEROL [3]: 70.33 mg/dL | CREATINE PHOSPHOKINASE [3]: 298 u/L | CREATININE [3]: 0.1 mg/dL | GLUCOSE [3]: 159.67 mg/dL | LACTATE DEHYDROGENASE [3]: 103.33 u/L | LIPASE [3]: 9.33 u/L | PHOSPHORUS [3]: 9.4 mg/dL | POTASSIUM [3]: 5.18 MEQ/L | SODIUM [3]: 146.37 MEQ/L | TOTAL BILIRUBIN [3]: 0.23 mg/dL | TOTAL PROTEIN [3]: 5.77 G/DL | URIC ACID [3]: 0.43 mg/dL | ABSOLUTE BASOPHIL [4]: 0 CELLS/uL | ABSOLUTE EOSINOPHIL [4]: 25 CELLS/uL | ABSOLUTE LYMPHOCYTE [4]: 7680.33 CELLS/uL | ABSOLUTE MONOCYTE [4]: 0 CELLS/uL | ABSOLUTE SEGMENTED NEUTROPHIL [4]: 428 CELLS/uL | BASOPHIL [4]: 0% | EOSINOPHIL [4]: 0.33% | ERYTHROCYTE COUNT [4]: 5.2 x10E6/uL | HEMATOCRIT [4]: 33.33% | HEMOGLOBIN [4]: 13.23 G/DL | LEUKOCYTE COUNT [4]: 8.13 x10E3/uL | LYMPHOCYTE [4]: 94.33% | MEAN CORPUSCULAR HEMOGLOBIN [4]: 25.47 pg | MEAN CORPUSCULAR HEMOGLOBIN CONCENTRATION [4]: 39.7 G/DL | MEAN CORPUSCULAR VOLUME [4]: 64.1 fL | MONOCYTE [4]: 0% | NEUTROPHIL [4]: 5.33% | NUCLEATED RED BLOOD CELLS [4]: 0 /100WBC | PLATELET COUNT [4]: 1135 x10E3/uL | ALANINE AMINOTRANSFERASE [4]: 75.67 u/L | ALBUMIN [4]: 3.67 G/DL | ALKALINE PHOSPHATASE [4]: 483 u/L | ASPARTATE AMINOTRANSFERASE [4]: 105.33 u/L | BLOOD UREA NITROGEN [4]: 12.33 mg/dL | CARBON DIOXIDE [4]: 32 mmol/L | CHLORIDE [4]: 98.67 MEQ/L | CHOLESTEROL [4]: 57 mg/dL | CREATINE PHOSPHOKINASE [4]: 433.67 u/L | CREATININE [4]: 0.15 mg/dL | GLUCOSE [4]: 156.67 mg/dL | LACTATE DEHYDROGENASE [4]: 119.33 u/L | LIPASE [4]: 9 u/L | PHOSPHORUS [4]: 10.47 mg/dL | POTASSIUM [4]: 5.72 MEQ/L | SODIUM [4]: 143.43 MEQ/L | TOTAL BILIRUBIN [4]: 0.3 mg/dL | TOTAL PROTEIN [4]: 5.7 G/DL | URIC ACID [4]: 0.67 mg/dL
